From patent publication US11360102B2, “Biomarkers for the early detection of Parkinson's disease” (BOSTON MEDICAL CENTER CORPORATION, priority 2015, dated 2022)
Where two headings read alike, the source gives them in different places.

Tests used:
[1] = system: PLA2g6(L)-dependent Orai1-mediated SOCE; test: TG-induced store-operated Ca2+ entry (SOCE), Fura-2 imaging in human primary skin fibroblasts; format: cell-based; conditions: Skin fibroblast, 10 μM of DES, hPSF, read-out: inhibition of TG-induced Ca^2+ influx
Procedure: Intracellular Ca^2+ studies were performed using standard Fura-2 imaging technique. Briefly, the cells were loaded with Fura-2/AM (5 μM) (Invitrogen) and cytosolic Ca^2+ (using F340/F380 ratio) was recorded simultaneously in individual cells. Representative traces in the figures show average (±SD) responses from up to 20 cells recorded simultaneously. Ca^2+ changes are shown by ΔRatio (ΔF340/F380), which is the difference between the basal and peak values of Ca^2+ responses. Summary bar graphs show the average (±SE) from 3 independent experiments for each condition; the total number of cells in each experimental group is identified on the graphs.
SOCE was measured in response to extracellular application of 2-2.5 mM Ca^2+ in the presence of TG. Concentration and time of acute TG treatment was titrated for each cell type to ensure >90% loss of Ca^2+ from TG-sensitive stores at the time of Ca^2+ addition. […] To inhibit PLA2g6 activity, (S)-BEL (S-bromoenol lactone, Cayman, USA) was applied (10-50 μM for 20 min in serum-free medium at 37° C.) to the cells after their loading with Fura-2/AM, and was washed away before the start of experiment.

PLA2g6 ex2^KO mice = test: L-DOPA challenge test, balance beam test; format: in vivo, mouse
Procedure: The balance beam test (ref 72, 73) was used to assess the ability of ageing ex2^KO and WT mice to maintain balance while walking along a narrow (2 cm) beam placed 20 cm above a soft mattress. Each mouse was placed on a beam for 2 minutes, and its movement was recorded by video camera. The total travel distance, the number of missteps (paw faults, or slips) during travel, and the number of falls off the beam were analyzed for each mouse, and data summarized for each group as mean±SE. The numbers of animals used for each group are identified on the graphs. L-DOPA challenge test (ref 3) was performed on three age groups (12, 16 and 20 months old) ex2^KO male mice with motor deficits. Control balance beam test was performed in the morning a day before L-3,4-dihydroxyphenylalanine (L-DOPA) challenge. In the morning of the following day, all mice received a single dose of L-DOPA (5, 10 or 25 mg/kg, Sigma) via peritoneal injection. Twenty minutes before L-DOPA administration, mice were given 6 mg/kg of benserazide (Sigma) to inhibit peripheral DOPA decarboxylase. The balance beam test was done 1 h after L-DOPA injection, as described above. Video-recorded data for each mouse were analyzed later, and summarized for each group as mean±SE. The numbers of animals used for each age group are identified next to the graph.

PLA2g6 = PLA2g6 activity, modified PLA2 assay kit, fibroblast homogenates; format: biochemical, human; conditions: S-BEL 25 μM for 10 min; hPSF from control, idPD and fPD^R747W patients
Procedure: A modified PLA2 assay kit (Cayman for MEFs, and AbCam for hPSF) was used as previously described^21,26. Briefly, each sample of live hPSF or MEF cells was homogenized using a cold lysis buffer (10 mM Tris-HCl, pH 7.0, 300 mM sucrose, 0.5% Triton X-100). To identify specific activity of Ca^2+-independent PLA2g6, the assay buffers were modified to contain no Ca^2+. To assess catalytic activity of PLA2g6, the cells were homogenized and treated with 10 mM EGTA for 10 min, which is known to directly displace inhibitory calmodulin, and fully activate PLA2g6. For analysis of PLA2g6 activation by store depletion, live cells were pretreated with TG (5 μM for 10 min) before homogenization, and homogenates were not treated with 10 mM EGTA. The specificity of PLA2g6 activity in both cases was confirmed by its inhibition with S-BEL (25 μM for 10 min), a chiral-specific suicidal substrate^38 that discriminates PLA2g6 from all other phospholipases. […] The reaction was stopped and the generation of free thiols was visualized by addition of DTNB for 5 min: the absorbance was determined at 405 nm using a standard microplate reader. […]

MEF cells = test: LC3^mCherry/eGFP autophagic flow, live cell imaging in MEFs; format: cell-based, mouse; conditions: WT MEFs; prolonged TG treatment, 10 nM for 24 hours
Procedure: Transfection of MEFs was performed using the Amaxa Nucleofector™ system (Lonza, Allendale, N.J., USA). Briefly, the cells were plated in a 6-well plate at a density of 200,000/well. After 24h the cells from each well were collected, centrifuged, re-suspended in 100 μl of electroporation solution (Mirus Bio, Madison, Wis., USA), mixed with 2 μg of the recombinant plasmid DNA and transfected using the T020 program. After electroporation, the cells were plated in 2 ml of warm DMEM containing 10% FBS and 1% penicillin/streptomycin, and grown for 24-48 hours, as specified. Transfection efficiency (verified by expression of GFP or LC3^mCherry/eGFP) was >70%.
Live cell imaging was done using Nikon Ti inverted fluorescence microscope equipped with a Perfect Focus system and environmental chamber (InVivo Scientific). Live cells transfected with LC3^mCherry/eGFP (alone, or in combination with PLA2g6, or its mutants) were imaged in glass-bottom dishes in culture medium at 37° C. and 5% CO2. Images of individual cells were taken using a 60×/1.4 Plan-Apochromat oil immersion objective (Nikon) and filter sets for GFP (ex: 465-496, em: 515-555) and Texas Red (ex: 540-580, em: 600-660). Images of representative cells were analyzed using ImageJ (Wayne Rasband, NIH) software. […]

`CC/C(=C(/CC)c1ccc(O)cc1)c1ccc(O)cc1` [DES, diethylstilbestrol] showed an inhibition at 10 µM ([1]; control group) of 80 ± 1% and an inhibition at 10 µM ([1]; idPD group) of 82 ± 4%.

With `N[C@@H](Cc1ccc(O)c(O)c1)C(=O)O` [L-DOPA, L-3,4-dihydroxyphenylalanine] the “reduction in the number of missteps (balance beam performance)” value (PLA2g6 ex2^KO mice; 5 mg/kg body weight L-DOPA, peritoneal injection, test 1 h after, 12-month old ex2^KO animals) was 60% and the “motor coordination of ex2^KO animals after L-DOPA” value (PLA2g6 ex2^KO mice; 5, 10 or 25 mg/kg, 12, 16 and 20 months old ex2^KO mice) was “dramatically improved motor coordination”.

With `O=C1O/C(=C/Br)CC[C@H]1c1cccc2ccccc12` [S-BEL, S-bromoenol lactone] the “effect on PLA2g6 activity (catalytic and TG-induced)” value (PLA2g6) was “inhibition”.

`C/C=C(/C)C(=O)O[C@H]1C(C)=C2[C@H]([C@@H]1OC(=O)CCCCCCC)[C@@](C)(OC(C)=O)C[C@H](OC(=O)CCC)[C@@]1(O)[C@H]2OC(=O)[C@@]1(C)O` [TG, thapsigargin] was tested, and the “autophagic flow (LC3^mCherry/eGFP)” value (MEF cells) was “Autophagic arrest”.
